Test results published in US6303366A, “Biodegradation of the gasoline oxygenates” (Envirogen, Inc., priority 1999, dated 2001).

System: strain ENV425
Assay: Laboratory-scale membrane bioreactor degradation of MTBE
Design: species or system Nocardia
Experimental: The BSM feed rate was 1.7 ml/min. to create a hydraulic residence time in the reactor of 2.5 days. The effluent of the reactor passed over the surface of a 100,000 mwt ultra filtration membrane (Model CR250; Raisio Flootek, Molmo, Sweden), at a flow rate of 1.2 to 2.2 ml/min at a pressure of from 1 to 1.5 psi. The retenate containing cells were passed back into the reactor, and the filtrate was discarded as the treated effluent. The reactor was operated at 30° C. at a pH of 7. […] Oxygen concentration within the reactor was monitored by using an Ingold […] and a Cole Palmer model 01971-00 oxygen monitor, and oxygen concentration was maintained at >1% air saturation by adding air or oxygen directly to the reactor.

Compound: COC(C)(C)C [MTBE, methyl-tert-butyl ether]
- MTBE added to the reactor removed (2.5 day hydraulic retention time): Greater than 95%
- MTBE stripping from the reactor, of the influent MTBE mass (typically): < 5%
